Laboratory results reported in ChEMBL document CHEMBL4825664, “17-Hydroxybrevianamide N and Its N1-Methyl Derivative, Quinazolinones from a Soft-Coral-Derived Aspergillus sp. Fungus: 13S Enantiomers as the True Natural Products” (J Nat Prod, 2021).
Active and inactive are the calls of the source.

Experiments:
Assay type in all cases: functional, organism-based
Escherichia coli = test: Antibacterial activity against Escherichia coli at 20 ug/ml; settings: dose 20.0 µg/ml
Staphylococcus aureus = test: Antibacterial activity against Staphylococcus aureus at 20 ug/ml; settings: dose 20.0 µg/ml
Influenza A virus = test: Antiviral activity against Influenza virus H1N1 at 100 uM
Pseudomonas aeruginosa = test: Antibacterial activity against Pseudomonas aeruginosa at 20 ug/ml; settings: dose 20.0 µg/ml
Candida albicans = test: Antifungal activity against Candida albicans at 20 ug/ml; settings: dose 20.0 µg/ml

Measured: Activity

CN1C(=O)c2nc3ccccc3c(=O)n2[C@@H](Cc2ccccc2O)C1=O
inactive: all assays above

O=C1NC(=O)[C@@H](Cc2ccccc2O)n2c1nc1ccccc1c2=O
inactive: all assays above

CN1C(=O)c2nc3ccccc3c(=O)n2[C@H](Cc2ccccc2O)C1=O
inactive: all assays above

O=C1NC(=O)[C@H](Cc2ccccc2O)n2c1nc1ccccc1c2=O
inactive: all assays above
